The record followed here is publication PMC11876601 (Molecular Systems Biology, 2025).

Experiment in all cases: cells
Assay [1] has as its system HPDE. Details: Viability of PDAC cell lines, ATPlite luminescence, 11-dose single-agent curve fit. The following applies: HPDE, 72 h, read-out: EC50 [nM]. Put shortly:
(§1)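 cells (1000 to 5000 per well) seeded 24 h before drug addition in a screen at 0.2% final DMSO. Controls were drug-free wells (negative) and 5 µM staurosporine (positive).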

Assay [2] relates to HuP-T4. Details: Viability of PDAC cell lines, ATPlite luminescence, 11-dose single-agent curve fit. The settings on record: Homo sapiens, HuP-T4, 72 h, read-out: EC50 [nM]. In outline:
as §1

Assay [3] relates to Colo-357. On the set-up: Viability of PDAC cell lines, ATPlite luminescence, 11-dose single-agent curve fit. The following applies: Homo sapiens, COLO357, 72 h, read-out: EC50 [nM]. Put shortly: as §1
Assay [4] relates to Capan-1. Details: Viability of PDAC cell lines, ATPlite luminescence, 11-dose single-agent curve fit. The settings on record: Homo sapiens, CAPAN-1, 72 h, read-out: EC50 [nM]. In outline:
as §1

The subject of assay [5] is Suit2-07. Details: Viability of PDAC cell lines, ATPlite luminescence, 11-dose single-agent curve fit. The following applies: 72 h, read-out: EC50 [nM]. In outline: as §1
Assay [6] has as its system PaTu-8988-T. On the set-up: Viability of PDAC cell lines, ATPlite luminescence, 11-dose single-agent curve fit. The following applies: Homo sapiens, PaTu 8988t, 72 h, read-out: EC50 [nM]. Put shortly:
as §1

In assay [7] the test system is PANC-1. On the set-up: Viability of PDAC cell lines, ATPlite luminescence, 11-dose single-agent curve fit. The settings on record: Homo sapiens, PANC-1, 72 h, read-out: EC50 [nM]. Put shortly: as §1
Assay [8] relates to BxPC-3. On the set-up: Viability of PDAC cell lines, ATPlite luminescence, 11-dose single-agent curve fit. The settings on record: Homo sapiens, BXPC-3, 72 h, read-out: EC50 [nM]. In outline:
as §1

Assay [9] has as its system PSN-1. On the set-up: Viability of PDAC cell lines, ATPlite luminescence, 11-dose single-agent curve fit. The settings on record: Homo sapiens, PSN1, 72 h, read-out: EC50 [nM]. Put shortly: as §1
For assay [10], the system named is MiaPaCa-2. Details: Viability of PDAC cell lines, ATPlite luminescence, 11-dose single-agent curve fit. The settings on record: Homo sapiens, MIA PaCa-2, 72 h, read-out: EC50 [nM]. Put shortly: as §1
For assay [11], the system named is AsPC-1. Details: Viability of PDAC cell lines, ATPlite luminescence, 11-dose single-agent curve fit. The following applies: Homo sapiens, ASPC1, 72 h, read-out: EC50 [nM]. Put shortly: as §1
For assay [12], the system named is Dan-G. On the set-up: ATPlite luminescence viability of PDAC cell lines, 11-dose single-agent curves, 4-parameter fit. The following applies: 72 h, read-out: EC50 [nM]. How it is done: (§2) Afterward, small amounts were transferred to 384-well intermediate plates (Greiner Bio-One GmbH, Germany). […] For drug combination screening, 1000 to 5000 cells were seeded into 384-well plates (CulturPlate™, Perkin Elmer, MA, USA) using a Multidrop™ Combi Reagent Dispenser (Thermo Scientific, MA, USA) in 50 µl medium per well 24 h prior to drug treatment (seeding densities see Appendix Table S1). […] The final DMSO concentration in each well was 0.2%. […] Eight wells per plate without library drug served as negative controls, and sixteen wells per plate containing 5 µM Staurosporine served as positive controls. […] Next, we analyzed the drug sensitivity of immortalized duct cell line HPDE to detect effects unrelated to pancreatic cancer.

In assay [13] the test system is FAMPAC. On the set-up: ATPlite luminescence viability of PDAC cell lines, 11-dose single-agent curves, 4-parameter fit. The following applies: 72 h, read-out: EC50 [nM]. How it is done:
as §2

Assay [14] deals with Dan-G. On the set-up: Viability of PDAC cell lines, ATPlite luminescence, 11-dose single-agent curve fit. The following applies: 72 h, read-out: EC50 [nM]. In outline: as §1
The subject of assay [15] is Suit2-07. Details: ATPlite luminescence viability of PDAC cell lines, 11-dose single-agent curves, 4-parameter fit. The following applies: 72 h, read-out: EC50 [nM]. How it is done: as §2
Assay [16] has as its system BxPC-3. On the set-up: ATPlite luminescence viability of PDAC cell lines, 11-dose single-agent curves, 4-parameter fit. The settings on record: Homo sapiens, BXPC-3, 72 h, read-out: EC50 [nM]. How it is done: as §2
Assay [17] relates to PSN-1. On the set-up: ATPlite luminescence viability of PDAC cell lines, 11-dose single-agent curves, 4-parameter fit. The following applies: Homo sapiens, PSN1, 72 h, read-out: EC50 [nM]. How it is done: as §2
Assay [18] deals with FAMPAC. On the set-up: Viability of PDAC cell lines, ATPlite luminescence, 11-dose single-agent curve fit. The settings on record: 72 h, read-out: EC50 [nM]. Put shortly: as §1

Read-outs that look alike come from different tables or passages of the source.

As usually defined, the EC50 is the midpoint of the concentration-response curve. Take `O=C(c1cc(Cc2n[nH]c(=O)c3ccccc23)ccc1F)N1CCN(C(=O)C2CC2)CC1` [Olaparib]: the EC50 in [1] is 1490 nM; in assay [2] it was 3200 nM; in assay [3], 7820 nM; in assay [4], greater than 10000 nM; in assay [5], 9600 nM; in assay [6] it was 1870 nM. Also, the concentration for a half-maximal effect (EC50) in assay [7] is greater than 10000 nM; in assay [8] it was 3550 nM; in assay [9] it was greater than 10000 nM; in assay [10] it was 5000 nM; in assay [11] it was 446 nM; in assay [12], 3940 nM. The 50% effective concentration (EC50) in assay [13] was determined as 8230 nM.
On to `CC(C)(C)c1nc(-c2cccc(NS(=O)(=O)c3c(F)cccc3F)c2F)c(-c2ccnc(N)n2)s1` [Dabrafenib], for which the EC50 was 197 nM in assay [1]; 1830 nM in assay [2]; 9480 nM in assay [3]; 50.5 nM in [4]; 749 nM in assay [6]; 5600 nM in assay [7]. Further, the concentration for a half-maximal effect (EC50) came out at 274 nM in [14]; 971 nM in assay [10]; 975 nM in assay [11]; 883 nM in assay [15]; 348 nM in [16]; 341 nM in [17]. In addition, the concentration for a half-maximal effect (EC50) in assay [13] was determined as 428 nM.
On to `Cn1cc(C2=C(c3cn(C4CCN(Cc5ccccn5)CC4)c4ccccc34)C(=O)NC2=O)c2ccccc21` [Enzastaurin], for which the EC50 in assay [1] was 9200 nM; in assay [2], 2270 nM; in [3], 109 nM; in assay [4] it was 401 nM; in assay [5], greater than 10000 nM; in [6], 5780 nM. The EC50 in assay [7] is 4980 nM; in [14] it was 873 nM; in [8], greater than 10000 nM; in assay [18] it was greater than 10000 nM; in [10], greater than 10000 nM; in assay [11], 7970 nM. Moreover, the EC50 in assay [17] was greater than 10000 nM.
On to `CCN(CCCOc1ccc2c(Nc3cc(CC(=O)Nc4cccc(F)c4)[nH]n3)ncnc2c1)CCOP(=O)(O)O` [Barasertib], for which the 50% effective concentration (EC50) stood at 74.6 nM in [1]; 56.8 nM in assay [2]; 852 nM in assay [3]; 42 nM in [4]; 3290 nM in assay [5]; 10300 nM in [6]. Also, the EC50 in [7] was determined as 74 nM; in assay [14], 296 nM; in [8], 53.6 nM; in assay [9] it was 32.6 nM; in [18], 40.1 nM; in assay [10] it was 4.24 nM. The EC50 in assay [11] stood at 56.3 nM.
Consider `Cc1cc(C)c(/C=C2\C(=O)Nc3ccccc32)[nH]1` [Semaxanib], for which the 50% effective concentration (EC50) is greater than 10000 nM in assay [1]; 42.4 nM in [2]; 317 nM in assay [3]; 5010 nM in assay [4]; 2320 nM in assay [5]; 815 nM in assay [6]. Also, the concentration giving a half-maximal response (EC50) was 66.8 nM in assay [7]; 169 nM in assay [14]; 5.83 nM in [8]; 127 nM in assay [9]; 43.5 nM in [18]; greater than 10000 nM in assay [10]. Besides, the 50% effective concentration (EC50) in assay [11] is 3330 nM.
Regarding `O=c1sn(-c2cccc3ccccc23)c(=O)n1Cc1ccccc1` [Tideglusib], the EC50 in [1] worked out at 58 nM; in assay [2], 4540 nM; in assay [3], 24.5 nM; in assay [4], 51.8 nM; in [5], 9730 nM; in assay [6], 636 nM. For the same molecule, the concentration for a half-maximal effect (EC50) in assay [7] is greater than 10000 nM; in assay [14] it was 1490 nM; in assay [8], 2600 nM; in assay [9], 0.13 nM; in [18], 2070 nM; in assay [10], 344 nM. For the same molecule, the 50% effective concentration (EC50) in assay [11] was 66.8 nM.
Consider `N#CC[C@H](C1CCCC1)n1cc(-c2ncnc3[nH]ccc23)cn1` [Ruxolitinib], for which the EC50 is greater than 10000 nM in [1]; 212 nM in assay [2]; 8280 nM in assay [3]; 0.51 nM in [4]; 1750 nM in [5]; 13.4 nM in assay [6]. Moreover, the concentration giving a half-maximal response (EC50) worked out at 1370 nM in [7]; 117 nM in assay [14]; 6970 nM in [8]; 2210 nM in assay [9]; 9910 nM in assay [18]; 1740 nM in assay [10]. Besides, the concentration for a half-maximal effect (EC50) in assay [11] was 23.6 nM.
Consider `CNC(=O)c1c(C)oc2cc(Oc3ncnc4cc(OC)c(OC)cc34)ccc12` [Fruquintinib], for which the EC50 in assay [1] was determined as 552 nM; in [2], 653 nM; in assay [3], 5.08 nM; in assay [4], 32.9 nM; in assay [5], 0.05 nM; in [6], 1810 nM. Further, the EC50 amounted to 20.4 nM in assay [7]; 1.05 nM in [14]; 0.01 nM in [8]; 5.57 nM in assay [9]; 1660 nM in assay [18]; 2740 nM in assay [10]. Moreover, the concentration for a half-maximal effect (EC50) in assay [11] came to 596 nM.
For `CCCS(=O)(=O)N[C@H]1C[C@@H](N(C)c2ncnc3[nH]ccc23)C1` [Abrocitinib], the half-maximal effective concentration (EC50) amounted to 5620 nM in assay [1]; 643 nM in [2]; 9870 nM in assay [3]; 37.4 nM in assay [4]; 901 nM in assay [5]; 3800 nM in [6]. The EC50 in assay [7] was 140 nM; in [14], greater than 10000 nM; in [8], 275 nM; in assay [9] it was greater than 10000 nM; in assay [18], 2.68 nM; in assay [10], 2760 nM. Besides, in assay [11], the EC50 came out at 3850 nM.
`CO[C@H]1C[C@@H]2CC[C@@H](C)[C@@](O)(O2)C(=O)C(=O)N2CCCC[C@H]2C(=O)O[C@H]([C@H](C)C[C@@H]2CC[C@@H](OCCO)[C@H](OC)C2)CC(=O)[C@H](C)/C=C(\C)[C@@H](O)[C@@H](OC)C(=O)[C@H](C)C[C@H](C)/C=C/C=C/C=C/1C` [Certican]: the EC50 in assay [1] was found to be 0.16 nM; in assay [2], 2.46 nM; in assay [3] it was 238 nM; in [4], 3520 nM; in [5] it was 2610 nM; in [6], 0.1 nM. Besides, the EC50 is 171 nM in assay [7]; 0.21 nM in assay [14]; 0.09 nM in assay [8]; 0.05 nM in [9]; 5.43 nM in assay [18]; 1.84 nM in assay [10]. The half-maximal effective concentration (EC50) in assay [11] stood at 0.14 nM.
